The nature of data set [1]: Solubilization of 1 mg/mL peptides in culture medium, DMSO or urea. Type of data set: physicochemical. The note with it: for Resuspension with DMSO: DMSO 2% of final volume of 1 mg/mL stock and clean medium, after sonication. The procedure: In order to measure the capacity of the peptides to inhibit IL-10, it is necessary for them to be in solution in the culture medium in which the proliferation assay with MC/9 cells is conducted. To that end, an attempt was first made to dissolve the peptides in complete medium at the concentration of 1 mg/mL. Due to the fact that, of the 26 peptides of Table 1, only 10 were soluble and 2 were partially soluble in these conditions (Table 3), it was necessary to improve the solubility of the remaining peptides by adding different proportions of dimethyl sulfoxide (DMSO) or urea. Other solubilizing agents, such as guanidine hydrochloride, ethanol, methanol, isopropanol, dimethylformamide (DMF), acetone, acetonitrile, ammonia and acetic acid were also tested, but due to the fact that they were not very effective or toxic for the cells, their use was discarded. For the purpose of limiting as much as possible the toxicity of DMSO or urea, the concentration of both agents in the culture medium was kept as low as possible compatible with the in vitro assay. Thus, the maximum concentration of solubilizing agent to be added which allows conducting the in vitro proliferation assay of MC/9 cells was first determined. As indicated above, 1, 0.5, 0.1, 0.05, 0.01, 0.005 and 0.001% acetic acid, ammonia, DMSO, DMF, acetone, acetonitrile, isopropanol, methanol and ethanol and 2, 1, 0.5, 0.250, 0.125, 0.062 and 0.031 M urea and guanidine hydrochloride were tested.
Guanidine hydrochloride was very toxic in all tested concentrations. […] In the case of urea, the limit concentration was 125 mM, and for ammonia, 0.2% (maximum tested). In relation to the alcohols, they were compatible up to 1% (maximum) and acetone and acetonitrile seemed to induce MC/9 cell proliferation. DMSO: • The resuspension of the peptides identified as SEQ ID NO: 5, SEQ ID NO: 6, SEQ ID NO: 9, SEQ ID NO: 12, SEQ ID NO: 15 and SEQ ID NO: 16 with DMSO (2% of the final volume of the 1 mg/mL stock) and clean medium was tested. After subjecting them to sonication, all of them were still cloudy, except the peptide identified as SEQ ID NO: 16. Methanol/Ethanol • To dissolve peptides using these alcohols, it is necessary to use them at 100% and at this concentration they are toxic for MC/9 cells. They are toxic even at 70%. Urea • The peptides identified as SEQ ID NO: 6, SEQ ID NO: 16, SEQ ID NO: 17, SEQ ID NO: 18 and SEQ ID NO: 20 were dissolved in 8 M urea (final concentration 0.8 M in 1 mg/mL) and complete medium. Urea is relatively toxic (cpm without urea 1.128, with 120 mM urea 109, with 80 mM 308 and with 20 mM 800, but the window is maintained).
Of the total of 39 peptides indicated, 11 (in bold print) could not be solubilized with any of the indicated conditions, therefore they could not be tested in the in vitro assay.
The peptides which could not be solubilized with any of the tested conditions are indicated in bold print. part S: partially soluble; S: soluble; I: insoluble

Another data set has as its system MC/9 cells. In words: Toxicity: inhibition of mGM-CSF-induced MC/9 cell proliferation. Format: cell-based, mouse. The note with it: inhibition of proliferation induced by 0.01 ng/mL mGM-CSF. The source says: The addition of peptides with the capacity to inhibit the activity of IL-10 to the MC/9 cell culture, to which exogenous IL-10 has been added, has the effect of inhibiting the proliferation of these cells due to the fact that IL-10 promotes the proliferation thereof. However, the addition of a peptide or any component to the culture (used to improve peptide solubility) which was toxic for MC/9 cells would also have the effect of inhibiting cell proliferation. […] For this purpose, an assay in parallel of the peptides using mouse granulocyte-monocyte colony-stimulating factor (mGM-CSF) (which also promotes MC/9 cell proliferation) instead of IL-10 was conducted. The concentration of mGM-CSF used was 0.01 ng/mL. In this case, IL-4 was not used as co-stimulus. The toxicity was expressed as the percentage of inhibition of the proliferation induced by mGM-CSF.
In the case of the peptides dissolved in urea, when analyzing both the IL-10 inhibition and the toxicity, negative, positive controls and controls with antibody with the concentrations of urea present in the peptide sample (120 mM, 80 mM and 20 mM) as well as controls without urea were included. The percentage of inhibition at each concentration of peptide was calculated comparing the cpm values of the sample with the values of the controls which contained the same concentration of urea.

[2] abbreviates: 1 mg/mL peptide, read-out: Solubility, Complete medium.
[3] abbreviates: 1 mg/mL peptide, read-out: Solubility, 0.8 M UREA.

Where two headings read alike, the source gives them in different places. Where a SMILES comes first, the peptide text is derived from it. Where no end group is shown, it is not given here. A value given as a limit tells only on which side of the number the result lay.

As usually defined, the solubility is the concentration that dissolves in the medium under given conditions. As to `CC(C)C[C@H](NC(=O)CNC(=O)[C@H](C)NC(=O)[C@H](CS)NC(=O)[C@@H](NC(=O)[C@H](Cc1ccccc1)NC(=O)[C@H](Cc1ccccc1)NC(=O)[C@H](CO)NC(=O)[C@@H](N)CCC(=O)O)C(C)C)C(=O)N[C@@H](CS)C(=O)N[C@@H](CCCNC(=N)N)C(=O)N[C@@H](CC(C)C)C(=O)N[C@@H](CCC(N)=O)C(=O)N1CCC[C@H]1C(=O)N[C@@H](Cc1ccc(O)cc1)C(=O)O` [compound 23] (H-ESFFVCAGLCRLQPY-OH; N-terminus and C-terminus assumed), in data set [1] (1 mg/mL peptide), the “Solubility, 0.8 M UREA” value is listed as “Turbidity”. Also, in data set [1] (setting [2]), the solubility was < 1000 µg/mL. For the compound WAYYHAGHSSFAVWT [compound 9], in data set [1] (1 mg/mL peptide), the “Solubility, 0.8 M UREA” value is on record as “Turbidity” and the “Solubility, 2% DMSO” value is “Turbidity”. Further, the solubility in data set [1] (setting [2]) was < 1000 µg/mL. Regarding HGFFAGGLAHWHGHR [compound 20], the solubility in data set [1] (setting [3]) was > 1000 µg/mL; in data set [1] (setting [2]), < 1000 µg/mL. As to GRVPSMFGGHFFFSR [compound 15], in data set [1] (1 mg/mL peptide), the “Solubility, 0.8 M UREA” value is on record as “Turbidity” and the “Solubility, 2% DMSO” value is listed as “Turbidity”. Further, the solubility in data set [1] (setting [2]) is < 1000 µg/mL. For AKVPSFRRSSLGSVR [compound 4], in data set [1] (setting [2]), the solubility is > 1000 µg/mL. Regarding FSWYFRHHRLMVAGP [compound 18], the solubility in data set [1] (setting [3]) is > 1000 µg/mL; in data set [1] (setting [2]), < 1000 µg/mL.

For FSWYFRHHRLMVAGP [P24], in the data set with MC/9 cells, the “toxicity for MC/9 cells” value is “partially toxic”. Turning to GVLSSIFSWRLVALH [P18], in data set [1], the “Resuspension with DMSO” value is recorded as “still cloudy”.

For RGWILDVVYLYPGPL [compound 17], the solubility in data set [1] (setting [3]) and in data set [1] (setting [2]) was < 1000 µg/mL in each case.

Consider RMLGFMSGSWRTPVR [compound 11], for which, in data set [1] (setting [2]), the solubility is > 1000 µg/mL. Regarding HGFFAGGLAHWHGHR [P26], in the data set with MC/9 cells, the “toxicity for MC/9 cells” value is reported as “partially toxic”.

On to HRHFRWLNGMPRLLG [compound 25], for which the solubility in data set [1] (setting [2]) is < 1000 µg/mL. The same measure, in the same setting: the value for FRSFHYHTGRWHWLP [compound 22] was < 1000 µg/mL; that for IFRVLSRMLPGTSVI [compound 13] was > 1000 µg/mL. Regarding RFYHADMLLRHVLMM [compound 5], in data set [1] (1 mg/mL peptide), the “Solubility, 0.8 M UREA” value was “Turbidity” and the “Solubility, 2% DMSO” value is “Turbidity”. Also, the solubility in data set [1] (setting [2]) is < 1000 µg/mL.

`CC(C)[C@H](NC(=O)[C@H](C)NC(=O)[C@@H](NC(=O)[C@@H]1CCCN1C(=O)[C@H](Cc1c[nH]cn1)NC(=O)[C@H](CCCNC(=N)N)NC(=O)[C@H](CCCNC(=N)N)NC(=O)[C@H](Cc1ccccc1)NC(=O)[C@H](Cc1c[nH]cn1)NC(=O)[C@H](Cc1ccccc1)NC(=O)[C@H](CS)NC(=O)[C@H](CCCNC(=N)N)NC(=O)[C@H](Cc1c[nH]cn1)NC(=O)[C@@H](N)CS)C(C)C)C(=O)N[C@@H](Cc1ccccc1)C(=O)O` [compound 6] (H-CHRCFHFRRHPVAVF-OH; N-terminus and C-terminus assumed): the “Solubility, 2% DMSO” value in data set [1] (1 mg/mL peptide) was “Turbidity”. For the same compound, the solubility in data set [1] (setting [3]) was > 1000 µg/mL; in data set [1] (setting [2]), < 1000 µg/mL. In the case of WAYYHAGHSSFAVWT [P14], the “Resuspension with DMSO” value in data set [1] is recorded as “still cloudy”. As for ARWMHRHHGWSDRHR [compound 2], the solubility in data set [1] (setting [2]) is > 1000 µg/mL. On to GVLSSIFSWRLVALH [compound 12], for which, in data set [1] (1 mg/mL peptide), the “Solubility, 0.8 M UREA” value is reported as “Turbidity” and the “Solubility, 2% DMSO” value is reported as “Turbidity”. Besides, the solubility in data set [1] (setting [2]) is < 1000 µg/mL. As to `CC(C)[C@H](NC(=O)[C@H](C)NC(=O)[C@@H](NC(=O)[C@@H]1CCCN1C(=O)[C@H](Cc1c[nH]cn1)NC(=O)[C@H](CCCNC(=N)N)NC(=O)[C@H](CCCNC(=N)N)NC(=O)[C@H](Cc1ccccc1)NC(=O)[C@H](Cc1c[nH]cn1)NC(=O)[C@H](Cc1ccccc1)NC(=O)[C@H](CS)NC(=O)[C@H](CCCNC(=N)N)NC(=O)[C@H](Cc1c[nH]cn1)NC(=O)[C@@H](N)CS)C(C)C)C(=O)N[C@@H](Cc1ccccc1)C(=O)O` [P9] (H-CHRCFHFRRHPVAVF-OH; N-terminus and C-terminus assumed), in data set [1], the solubility entry is “insoluble” and the “Resuspension with DMSO” value is given as “still cloudy”. As for WSLLRIVYNRHSHSK [compound 16], the solubility in data set [1] (setting [3]) was > 1000 µg/mL; in data set [1] (1 mg/mL peptide, read-out: Solubility, 2% DMSO), < 1000 µg/mL; in data set [1] (setting [2]), < 1000 µg/mL. Take PFVVSDIAFMGLFYD [compound 3]: the solubility in data set [1] (setting [2]) was < 1000 µg/mL. On the same count and under the same terms, the value for RKLRPHWLHFHPVAV [compound 1] was > 1000 µg/mL. Turning to TRHRHVPRFLPLRHV [compound 8], the solubility in data set [1] (setting [2]) is > 1000 µg/mL. The same measure, in the same setting: the value for GRFRHYSMLRHHSIR [compound 19] was > 1000 µg/mL. As to TRHRHVPRFLPLRHV [P13], in data set [1], the solubility result is reported as “soluble”. Consider HRWMPHVFAVRQGAS [compound 7], for which the solubility in data set [1] (setting [2]) is > 1000 µg/mL.

For the compound GAGVLTPFTWRRFHM [compound 10], the solubility in data set [1] (setting [2]) is > 1000 µg/mL.

GRVPSMFGGHFFFSR [P21]: in data set [1], the “Resuspension with DMSO” value was “still cloudy”. In the case of ARFPKELRGSVRSAH [compound 14], the solubility in data set [1] (setting [2]) was > 1000 µg/mL. With `CC[C@H](C)[C@H](NC(=O)[C@H](CC(C)C)NC(=O)[C@H](Cc1ccccc1)NC(=O)CNC(=O)[C@@H](NC(=O)[C@H](CC(C)C)NC(=O)[C@H](C)NC(=O)[C@H](CO)NC(=O)[C@H](CS)NC(=O)CN)C(C)C)C(=O)N[C@@H](CC(C)C)C(=O)N[C@@H](CC(C)C)C(=O)N[C@@H](CS)C(=O)N[C@@H](CS)C(=O)N[C@@H](CCSC)C(=O)O` [compound 26] (H-GCSALVGFLILLCCM-OH; N-terminus and C-terminus assumed), the “Solubility, 0.8 M UREA” value in data set [1] (1 mg/mL peptide) was “Turbidity”. Besides, the solubility in data set [1] (setting [2]) was < 1000 µg/mL.

In the case of LFLLSGVFVPDLHEG [compound 24], the “Solubility, 0.8 M UREA” value in data set [1] (1 mg/mL peptide) was “Turbidity”. Also, the solubility in data set [1] (setting [2]) was < 1000 µg/mL. On the same counts, the results for `CC(C)C[C@H](NC(=O)[C@H](Cc1ccccc1)NC(=O)[C@H](C)NC(=O)[C@H](CC(C)C)NC(=O)[C@@H](NC(=O)[C@H](Cc1ccccc1)NC(=O)[C@H](CC(C)C)NC(=O)[C@H](Cc1c[nH]cn1)NC(=O)[C@H](CS)NC(=O)[C@H](CS)NC(=O)[C@H](CCCNC(=N)N)NC(=O)[C@H](Cc1c[nH]cn1)NC(=O)[C@H](C)N)[C@@H](C)O)C(=O)N[C@@H](Cc1ccccc1)C(=O)N[C@@H](C)C(=O)O` [compound 21] (H-AHRCCHLFTLAFLFA-OH; N-terminus and C-terminus assumed) are “Turbidity” and < 1000 µg/mL. On to RFYHADMLLRHVLMM [P8], for which the “Resuspension with DMSO” value in data set [1] is given as “still cloudy”.

The values are drawn from patent US8148334B2, “Peptides with capacity for binding with interleukine 10 (IL-10)” (Proyecto de Biomedicina Cima, S.L., priority 2007, dated 2012).
